Assay results published in PMC6368403, “Identification of a bilirubin receptor that may mediate a component of cholestatic itch” (eLife, 2019).

Assays:
[1] = biological target: T1, MRGPRA1 (Mus musculus, UniProt Q91WW5); test: Microscale thermophoresis binding to MRGPRA1; design: Transformed binding isotherm (mean of three experiments): unit not given here; conditions: for Transformed binding isotherm (mean of three experiments): MRGPRA1 (Fig 2E)
T1 construct: expressed in transfected cells
T1 sequence (Q91WW5 1-304): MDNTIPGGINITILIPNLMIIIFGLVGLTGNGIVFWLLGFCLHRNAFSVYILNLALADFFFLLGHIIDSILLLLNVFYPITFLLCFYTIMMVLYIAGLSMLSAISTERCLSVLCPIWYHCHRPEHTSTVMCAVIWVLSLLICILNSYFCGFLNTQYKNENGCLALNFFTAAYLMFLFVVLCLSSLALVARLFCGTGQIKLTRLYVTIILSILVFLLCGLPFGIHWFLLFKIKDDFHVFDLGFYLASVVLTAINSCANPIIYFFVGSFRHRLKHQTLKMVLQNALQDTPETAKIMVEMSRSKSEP
Description: (§1) Binding isotherms for MRGPRA1, MRGPRX4, and MRGRPC11 towards various ligands were determined by microscale thermophoresis with the NanoTemper monolith NT.115 instrument ([Duhr and Braun, 2006]). Ligands were pre-incubated with 10 µM of the GFP-tagged receptor of interest for 5 min at room temperature in binding buffer (20 mM Tris and 150 mM NaCl at pH 8.8). Receptors were crudely purified as a membrane fraction from cells stably expressing the receptor ([Vasavda et al., 2017]). Haem metabolites were freshly dissolved in 0.1 M NaOH in dim light and then diluted into assay buffer. Lyophilized BAM8-22 was dissolved in binding buffer. The pH of each ligand was evaluated prior to incubation with a receptor. Samples were loaded into NT.115 Hydrophobic-Treated Capillaries from NanoTemper. Microscale thermophoretic experiments were executed using 20% LED power and 15% MST power. KDs were calculated using the law of mass action with data from three independent experiments. Binding between bilirubin and receptors was evaluated purely thermophoretically, whereas binding between BAM8-22 and MRGPRC11 was evaluated by T-Jump. Samples with dramatic deviations in initial fluorescence were excluded.

[2] = biological target: T2, MRGPRX4 (Homo sapiens, UniProt Q96LA9); test: Microscale thermophoresis binding to MRGPRX4; design: microscale thermophoresis response (binding isotherm), mean: unit not given here; conditions: for microscale thermophoresis response (binding isotherm), mean: mean of n=3, Fig 2-J
T2 construct: expressed in transfected cells
Description: as §1

[3] = biological target: T1, MRGPRA1; test: Ca2+ imaging and concentration-Ca2+ response (EC50) in HEK293 cells expressing MRGPRA1; type: cell-based; conditions: 50 µM bilirubin, 30 µM FMRF
Description: All cultured cells were maintained in DMEM supplemented with 10% FBS and 1% Penicillin/Streptomycin at 37°C, 5% CO2. All data included were generated from cells tested for mycoplasma and found to be negative. Cells were imaged in calcium imaging buffer (CIB; 10 mM HEPES, 1.2 mM NaHCO3, 130 mM NaCl, 3 mM KCl, 2.5 mM CaCl2, 0.6 mM MgCl2, 20 mM glucose, and 20 mM sucrose at pH 7.4 and 290–300 mOsm). To monitor changes in intracellular [Ca^2+] ([Ca^2+]i), cells were loaded with either Fura 2-AM (HEK293 cells) or Fluo 4-AM (DRG neurons and mast cells) for 30 min in the dark at 37°C in CIB just prior to imaging. With Fura 2-AM, emission at 510 nm was monitored from excitation at both 340 nm and 380 nm. With Fluo 4-AM, emission at 520 nm was monitored from excitation at 488 nm. Cells were identified as responding if the intracellular [Ca^2+] rose by either 50% compared to baseline or 50% compared to the [Ca^2+]i change assayed during addition of 50 mM KCl (neurons only). Damaged, detached, high-baseline, and motion-activated cells were excluded from analysis.
In initial screens, HEK293 cells stably expressing the murine G-protein alpha-subunit Gα15, a unique Gα protein that non-selectively couples a large variety of GPCRs to phospholipase C ^30, were plated on poly-D-lysine-coated coverslips and transiently transfected with constructs encoding the MRGRPR of interest. 12–24 hr later, cells were loaded with the Fura 2-AM. Unless otherwise specified, compounds were perfused into the imaging chamber for approximately thirty seconds after a baseline period was established. Response was then monitored at 5 s intervals for an additional 60 s.
HEK293 cells stably expressing either MRGPRA1, MRGPRX4, and MRGRPC11 were seeded in poly-D-lysine-coated 96-well plates at 10,000 cells/well. Cells were loaded with Fura 2–AM, washed twice, and maintained in CIB. Haem metabolites were freshly dissolved in DMSO in dim light and then diluted into a buffer comprised of 20 mM Tris and 150 mM NaCl at pH 8.8. Potential changes in pH were evaluated prior to each experiment. EC50 values were determined from dose-responses performed in triplicate, repeated 2–4 times. To determine potential antagonism by QWF against bilirubin, cells were treated with varying doses of QWF for 1 min in CIB prior to application of agonist.
HEK293 stable cell lines expressing GFP-tagged MRGPRA3, MRGPRC11, MRGPRD, MRGPRX1, and MRGPRX2 were generated in previously described reports ([Liu et al., 2009]; [Liu et al., 2012]; [McNeil et al., 2015]). Briefly, plasmids containing the receptor of interest were transfected into HEK cells using Lipofectamine 3000. After 3 days, cells were then selected using 0.5 mg/mL G418. After 3 weeks, monoclonal colonies were established and each the highest expressing clones were identified. For this study, Mrgpra1 and MRGPRX4 were inserted into pEGFP-N1 and transfected into HEK293 cells. MRGPR-positive cells were selected using 0.5 mg/mL G418 for three weeks, after which GFP-positive cells were sorted by FACS and monoclonally expanded. Two lines expressing similar levels of MRGPRA1 and MRGPRX4, as measured by GFP fluorescence, were selected for study.

T2 sequence (Q96LA9 whole entry): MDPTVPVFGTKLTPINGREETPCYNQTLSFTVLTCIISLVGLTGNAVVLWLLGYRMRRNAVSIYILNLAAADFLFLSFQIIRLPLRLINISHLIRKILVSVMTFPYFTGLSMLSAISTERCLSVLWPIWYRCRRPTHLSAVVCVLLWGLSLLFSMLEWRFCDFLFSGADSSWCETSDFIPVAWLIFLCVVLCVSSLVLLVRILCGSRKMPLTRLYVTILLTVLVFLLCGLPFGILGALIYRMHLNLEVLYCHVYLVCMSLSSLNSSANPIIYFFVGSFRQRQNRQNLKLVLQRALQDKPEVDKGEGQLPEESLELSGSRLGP

Question: Which “Transformed binding isotherm (mean of three experiments)” value (“Transformed binding isotherm” below) ([1]; [Ligand] 3.05e-8 M) does the source give for hemin here?
Answer: Its value is 0.

Question: What about the “Transformed binding isotherm” value ([1]; [Ligand] 6.1e-8 M) of the same substance?
Answer: The value was 0.

Question: What about the “Transformed binding isotherm” value ([1]; [Ligand] 1.221e-7 M) of the same substance?
Answer: The value was 0.

Question: What about the “Transformed binding isotherm” value ([1]; [Ligand] 2.441e-7 M) of the same substance?
Answer: The value was 0.

Question: What about the “Transformed binding isotherm” value ([1]; [Ligand] 4.883e-7 M) of the same substance?
Answer: The value was 0.

Question: What about the “Transformed binding isotherm” value ([1]; [Ligand] 9.766e-7 M) of the same substance?
Answer: Its value is 0.

Question: What about the “Transformed binding isotherm” value ([1]; [Ligand] 1.9531e-6 M) of the same substance?
Answer: Its value is 0.

Question: What about the “Transformed binding isotherm” value ([1]; [Ligand] 3.9063e-6 M) of the same substance?
Answer: The value was 0.

Question: What about the “Transformed binding isotherm” value ([1]; [Ligand] 7.8125e-6 M) of the same substance?
Answer: Its value is 0.

Question: And the “Transformed binding isotherm” value ([1]; [Ligand] 1.5625e-5 M)?
Answer: The value was 0.

Question: What about the “Transformed binding isotherm” value ([1]; [Ligand] 3.125e-5 M) of the same substance?
Answer: The value was 0.

Question: What about the “Transformed binding isotherm” value ([1]; [Ligand] 6.25e-5 M) of the same substance?
Answer: Its value is 0.

Question: And the “Transformed binding isotherm” value ([1]; [Ligand] 0.000125 M)?
Answer: Its value is 0.

Question: What about the “Transformed binding isotherm” value ([1]; [Ligand] 0.00025 M) of the same substance?
Answer: The value was 0.

Question: What about the “Transformed binding isotherm” value ([1]; [Ligand] 0.0005 M) of the same substance?
Answer: Its value is 0.

Question: And the “Binding to MRGPRA1” value ([1]; microscale thermophoresis)?
Answer: The value was “did not bind”.

Question: What about the “microscale thermophoresis response (binding isotherm), mean” value (“microscale thermophoresis response” below) ([2]; [Ligand] 3.05e-8 M) of the same substance?
Answer: The value was 0.

Question: And the “microscale thermophoresis response” value ([2]; [Ligand] 6.1e-8 M)?
Answer: Its value is 0.

Question: What about the “microscale thermophoresis response” value ([2]; [Ligand] 1.221e-7 M) of the same substance?
Answer: The value was 0.

Question: And the “microscale thermophoresis response” value ([2]; [Ligand] 2.441e-7 M)?
Answer: Its value is 0.

Question: And the “microscale thermophoresis response” value ([2]; [Ligand] 4.883e-7 M)?
Answer: Its value is 0.

Question: What about the “microscale thermophoresis response” value ([2]; [Ligand] 9.766e-7 M) of the same substance?
Answer: Its value is 0.

Question: What about the “microscale thermophoresis response” value ([2]; [Ligand] 1.9531e-6 M) of the same substance?
Answer: The value was 0.

Question: And the “microscale thermophoresis response” value ([2]; [Ligand] 3.9063e-6 M)?
Answer: The value was 0.

Question: And the “microscale thermophoresis response” value ([2]; [Ligand] 7.8125e-6 M)?
Answer: The value was 0.

Question: What about the “microscale thermophoresis response” value ([2]; [Ligand] 1.5625e-5 M) of the same substance?
Answer: The value was 0.

Question: What about the “microscale thermophoresis response” value ([2]; [Ligand] 3.125e-5 M) of the same substance?
Answer: Its value is 0.

Question: And the “microscale thermophoresis response” value ([2]; [Ligand] 6.25e-5 M)?
Answer: Its value is 0.

Question: And the “microscale thermophoresis response” value ([2]; [Ligand] 0.000125 M)?
Answer: The value was 0.

Question: And the “microscale thermophoresis response” value ([2]; [Ligand] 0.00025 M)?
Answer: Its value is 0.

Question: What about the “microscale thermophoresis response” value ([2]; [Ligand] 0.0005 M) of the same substance?
Answer: The value was 0.

Question: And the “Binding to MRGPRX4” value ([2]; microscale thermophoresis)?
Answer: The value was “did not bind”.

Question: And the “Calcium response / activation of MRGPRA1-expressing cells” value [3]?
Answer: The value was “failed to activate MRGPRA1”.
